Data from BindingDB's records for doi:10.1007/pl00005131 (UniversitÄT WÜRzburg, 1998).

Experiments:
Adenosine receptor A2a = Adenosine receptor A2a (Homo sapiens, UniProt P29274)
Adenosine receptor A3 = biological target: T1, Adenosine receptor A3 (Homo sapiens, UniProt P0DMS8)
T1 sequence (P0DMS8 whole entry): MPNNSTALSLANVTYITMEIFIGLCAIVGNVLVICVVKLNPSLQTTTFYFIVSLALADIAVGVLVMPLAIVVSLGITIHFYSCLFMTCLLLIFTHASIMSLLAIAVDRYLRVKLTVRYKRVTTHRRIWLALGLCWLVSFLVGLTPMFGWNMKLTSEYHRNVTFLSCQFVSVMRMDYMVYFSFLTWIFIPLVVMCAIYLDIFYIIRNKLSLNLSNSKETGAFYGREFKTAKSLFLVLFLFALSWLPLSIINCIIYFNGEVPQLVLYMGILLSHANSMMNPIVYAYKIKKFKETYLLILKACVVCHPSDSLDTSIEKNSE

Chain of Adenosine receptor A2a (P29274 whole entry): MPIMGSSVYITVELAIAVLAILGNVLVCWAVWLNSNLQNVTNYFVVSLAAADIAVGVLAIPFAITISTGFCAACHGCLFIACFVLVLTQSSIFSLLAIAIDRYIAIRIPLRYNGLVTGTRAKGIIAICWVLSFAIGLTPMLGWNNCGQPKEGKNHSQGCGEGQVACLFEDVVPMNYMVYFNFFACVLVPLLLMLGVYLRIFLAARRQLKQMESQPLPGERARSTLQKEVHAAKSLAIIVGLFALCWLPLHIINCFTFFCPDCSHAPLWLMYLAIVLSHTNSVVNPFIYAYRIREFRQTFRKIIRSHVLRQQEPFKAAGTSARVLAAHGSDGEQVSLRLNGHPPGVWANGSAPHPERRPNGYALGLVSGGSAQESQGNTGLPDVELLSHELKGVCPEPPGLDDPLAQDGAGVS

Structure (SMILES) | Ki (Adenosine receptor A2a) | Ki (Adenosine receptor A3)
CNC(=O)[C@H]1O[C@@H](n2cnc3c(NCc4ccc(N)c(I)c4)ncnc32)[C@H](O)[C@@H]1O | 471 nM | –
OC[C@H]1O[C@@H](n2cnc3c(NC4CCCC4)ncnc32)[C@H](O)[C@@H]1O | 794 nM | 43 nM
Nc1nc2ccc(Cl)cc2c2nc(-c3ccco3)nn12 | – | 50.8 nM
CNC(=O)[C@H]1O[C@@H](n2cnc3c(NCc4ccc(N)cc4)ncnc32)[C@H](O)[C@@H]1O [AB-MECA] | – | 21.5 nM
